According to patent US10968232B2 (Merck Sharp & Dohme Corp., priority 2016, dated 2021):

molecular target: T1, human GPR40 (Homo sapiens, UniProt O14842); experiment: Inositol Phosphate Turnover (IP1) Assay; assay type: cell-based; settings: HEK cells stably expressing human GPR40; CisBio IP-One kit; 60 minutes at 37 degrees; read-out: Human IP1 EC50
T1 construct: expressed in transfected cells
Summary of the method: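 HEK cells stably expressing GPR40, plated 16 h, then exposed to compound in stimulation buffer for 60 min at 37 °C. IP1 accumulation read by HTRF IP-One detection after 60 min at RT.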

T1 sequence (O14842 whole entry): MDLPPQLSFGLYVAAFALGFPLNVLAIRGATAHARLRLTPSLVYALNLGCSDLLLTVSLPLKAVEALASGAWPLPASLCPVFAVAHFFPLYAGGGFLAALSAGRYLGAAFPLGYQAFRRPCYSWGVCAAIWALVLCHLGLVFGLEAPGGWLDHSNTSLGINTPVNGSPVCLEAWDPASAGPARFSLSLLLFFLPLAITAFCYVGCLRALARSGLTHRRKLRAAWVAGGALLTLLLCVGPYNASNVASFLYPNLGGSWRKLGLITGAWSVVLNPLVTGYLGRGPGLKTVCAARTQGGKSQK

In order of falling EC50:
1. C[C@H](C(=O)O)[C@H](c1ccc2c(c1)OC1(CC2)CCN(c2ccc3c(C(F)(F)F)nn(C)c3c2)CC1)C1CC1 [Example 37, (2S,3R)-3-cyclopropyl-2-methyl-3-(1′-(1-methyl-3-(trifluoromethyl)-1H-indazol-6-yl)spiro[chroman-2,4′-piperidin]-7-yl)-propanoic acid]  0.683 µM
2. C[C@H](C(=O)O)[C@H](c1ccc2c(c1)OC1(CC2)CCN(c2ccc3c(c2)c(C(F)(F)F)nn3C)CC1)C1CC1 [Example 38, (2S,3R)-3-cyclopropyl-2-methyl-3-(1′-(1-methyl-3-(trifluoromethyl)-1H-indazol-5-yl)spiro[chroman-2,4′-piperidin]-7-yl)propanoic acid]  0.506 µM
3. COc1ccc(C(F)(F)F)c(C(C)N2CCC3(CCc4ccc([C@H](C5CC5)[C@H](C)C(=O)O)cc4O3)CC2)n1 (single isomer, unassigned) [Example 105, sodium (2S,3R)-3-cyclo-propyl-3-(1′-((S or R)-1-(6-methoxy-3-(trifluoromethyl)pyridin-2-yl)ethyl)-spiro-[chroman-2,4′-piperidin]-7-yl)-2-methylpropanoate]  0.126 µM
4. C[C@H](C(=O)O)[C@H](c1ccc2c(c1)OC1(CC2)CCN(Cc2cc(C#N)ccc2OC(F)(F)F)CC1)C1CC1 [Example 124, (2S,3R)-3-(1′-(5-cyano-2-(trifluoro-methoxy)-benzyl)spiro[chroman-2,4′-piperidin]-7-yl)-3-cyclopropyl-2-methylpropanoic acid]  0.0641 µM
5. CC(c1ncccc1C(F)(F)F)N1CCC2(CCc3ccc([C@H](C4CC4)[C@H](C)C(=O)O)cc3O2)CC1 (single isomer, unassigned) [Example 43, (2S,3R)-3-cyclopropyl-2-methyl-3-(1′-((S or R)-1-(3-(trifluoromethyl)-pyridin-2-yl)ethyl)spiro[chroman-2,4′-piperidin]-7-yl)propanoic Acid]  0.0602 µM
6. C[C@H](NC1CC2(CCc3ccc([C@H](C4CC4)[C@H](C)C(=O)O)cc3O2)C1)c1cc(C(F)(F)F)ccc1C(F)(F)F (single isomer, unassigned) [Example 92]  0.0246 µM
7. CC(c1cc(C2CC2)ccc1OC(F)(F)F)N1CCC2(CCc3ccc([C@H](C4CC4)[C@H](C)C(=O)O)cc3O2)CC1 (stereo partly drawn) [Example 111, (2S,3R)-3-cyclopropyl-3-(1′-(1-(5-cyclopropyl-2-(trifluoromethoxy)phenyl)ethyl)spiro[chroman-2,4′-piperidin]-7-yl)-2-methylpropanoic Acid]  0.0202 µM
8. C[C@H](C(=O)O)[C@H](c1ccc2c(c1)OC1(CCCN([C@H](C)c3cc(C(F)(F)F)ccc3C(F)(F)F)C1)CC2)C1CC1 (single isomer, unassigned) [Example 74, (2S,3R)-3-((S or R)-1′-((R)-1-(2,5-bis (trifluoromethyl)phenyl)-ethyl)spiro[chroman-2,3′-piperidin]-7-yl)-3-cyclopropyl-2-methylpropanoic acid]  0.0183 µM
9. C[C@H](C(=O)O)[C@H](c1ccc2c(c1)OC1(CC2)CC(Nc2ncccc2C(F)(F)F)C1)C1CC1 (single isomer, unassigned) [Example 87]  0.0153 µM
10. C[C@H](C(=O)O)[C@H](c1ccc2c(c1F)OC1(CC2)CCN([C@H](C)c2cc(C(F)(F)F)ccc2C(F)(F)F)CC1)C1CC1 [Example 6, (2S,3R)-3-(1′-((R)-1-(2,5-bis(trifluoromethyl)-phenyl)ethyl)-8-fluoro-spiro[chroman-2,4′-piperidin]-7-yl)-3-cyclo-propyl-2-methyl-propanoic acid]  0.0121 µM
11. C[C@H](C(=O)O)[C@H](c1ccc2c(c1)OC1(CC2)CCN([C@@H](C)c2cc(F)ccc2OC(F)(F)F)CC1)C1CC1 [Example 132, Sodium (2S,3R)-3-cyclopropyl-3-(1′-((S)-1-(5-fluoro-2-(trifluoromethoxy)phenyl)ethyl)spiro[chromane-2,4′-piperidin]-7-yl)-2-methylpropanoate]  0.0112 µM
12. CC(c1cc(Cl)ccc1OC(F)F)N1CCC2(CCc3ccc([C@H](C4CC4)[C@H](C)C(=O)O)c(F)c3O2)CC1 (single isomer, unassigned) [Example 34, (2S,3R)-3-(1′-((S or R)-1-(5-chloro-2-(difluoro-methoxy)phenyl)ethyl)-8-fluorospiro-[chroman-2,4′-piperidin]-7-yl)-3-cyclopropyl-2-methylpropanoic acid]  0.0089 µM
13. C[C@H](C(=O)O)[C@H](c1ccc2c(c1)OC1(CC2)CC(N[C@H](C)c2cc(C(F)(F)F)ccc2C(F)(F)F)C1)C1CC1 (stereo partly drawn) [Example 91, (2S,3R)-3-(3′-((1-(2,5-bis(trifluoromethyl)phenyl)ethyl)amino)spiro[chroman-2,1′-cyclobutan]-7-yl)-3-cyclopropyl-2-methylpropanoic Acid]  0.00862 µM
14. C[C@H](C(=O)O)[C@H](c1ccc2c(c1)OC1(CC2)CC2(CN([C@H](C)c3cc(C(F)(F)F)ccc3C(F)(F)F)C2)C1)C1CC1 [Example 126, (2S,3R)-3-cyclopropyl-3-(2,2-(R)-2-(1-(2,5-bis(trifluoromethyl)phenyl)ethyl)-2-azaspiro[3.3]heptane-chroman-7-yl)-2-methylpropanoic Acid]  0.00852 µM
15. C[C@H](C(=O)O)[C@H](c1ccc2c(c1)OC1(CC2)CC(N(C)c2ncccc2C(F)(F)F)C1)C1CC1 (stereo partly drawn) [Example 90, (2S,3R)-3-cyclo-propyl-2-methyl-3-(3′-(methyl(3-(trifluoro-methyl)pyridin-2-yl)amino)spiro[chro-man-2,1′-cyclobutan]-7-yl)propanoic acid]  0.00724 µM
16. C[C@H](C(=O)O)[C@H](c1ccc2c(c1)OC1(CC2)CC(N(C)[C@@H](C)c2cc(C(F)(F)F)ccc2C(F)(F)F)C1)C1CC1 (stereo partly drawn) [Example 100, (2S,3R)-3-(3′-(((S)-1-(2,5-bis(trifluoro-methyl)phenyl)ethyl)(meth-yl)amino)spiro[chro-man-2,1′-cyclobutan]-7-yl)-3-cyclopropyl-2-methylpropanic acid]  0.00419 µM
17. CC(c1cc(Cl)ccc1OC(F)(F)F)N1CCC2(CCc3ccc([C@H](C4CC4)[C@H](C)C(=O)O)c(F)c3O2)CC1 (stereo partly drawn) [Example 21, (2S,3R)-3-(1′-(1-(5-chloro-2-(trifluoromethoxy)phenyl)ethyl)-8-fluorospiro[chroman-2,4′-piperidin]-7-yl)-3-cyclopropyl-2-methylpropanoic Acid]  0.00366 µM
18. C[C@H](NC1CC2(CCc3ccc([C@H](C4CC4)[C@H](C)C(=O)O)cc3O2)C1)c1cc(C(F)(F)F)ccc1C(F)(F)F (single isomer, unassigned) [Example 94]  0.00262 µM
19. C[C@H](C(=O)O)[C@H](c1ccc2c(c1)OC1(CC2)CCC(Nc2cc(C(F)(F)F)ccc2C(F)(F)F)CC1)C1CC1 (single isomer, unassigned) [Example 67]  0.00112 µM
20. CCC(c1cc(Cl)ccc1OC(F)(F)F)N1CCC2(CCc3ccc([C@H](C4CC4)[C@H](C)C(=O)O)cc3O2)CC1 (stereo partly drawn) [Example 110, (2S,3R)-3-(1′-(1-(5-chloro-2-(trifluoromethoxy)phenyl)propyl)spiro[chroman-2,4′-piperidin]-7-yl)-3-cyclopropyl-2-methylpropanoic Acid]  0.000812 µM
21. C[C@H](C(=O)O)[C@H](c1ccc2c(c1)OC1(CC2)CCC(N(C)c2ncccc2C(F)(F)F)CC1)C1CC1 (single isomer, unassigned) [Example 69]  0.000416 µM
